ChEMBL document CHEMBL1909046, “DrugMatrix in vitro pharmacology data”

How the values were obtained:
[1] = target: T1, Androgen receptor (Rattus norvegicus, UniProt P15207); further: in other assays of this panel Not Active means under 50% inhibition at 10 µM
T1 sequence (P15207 whole entry): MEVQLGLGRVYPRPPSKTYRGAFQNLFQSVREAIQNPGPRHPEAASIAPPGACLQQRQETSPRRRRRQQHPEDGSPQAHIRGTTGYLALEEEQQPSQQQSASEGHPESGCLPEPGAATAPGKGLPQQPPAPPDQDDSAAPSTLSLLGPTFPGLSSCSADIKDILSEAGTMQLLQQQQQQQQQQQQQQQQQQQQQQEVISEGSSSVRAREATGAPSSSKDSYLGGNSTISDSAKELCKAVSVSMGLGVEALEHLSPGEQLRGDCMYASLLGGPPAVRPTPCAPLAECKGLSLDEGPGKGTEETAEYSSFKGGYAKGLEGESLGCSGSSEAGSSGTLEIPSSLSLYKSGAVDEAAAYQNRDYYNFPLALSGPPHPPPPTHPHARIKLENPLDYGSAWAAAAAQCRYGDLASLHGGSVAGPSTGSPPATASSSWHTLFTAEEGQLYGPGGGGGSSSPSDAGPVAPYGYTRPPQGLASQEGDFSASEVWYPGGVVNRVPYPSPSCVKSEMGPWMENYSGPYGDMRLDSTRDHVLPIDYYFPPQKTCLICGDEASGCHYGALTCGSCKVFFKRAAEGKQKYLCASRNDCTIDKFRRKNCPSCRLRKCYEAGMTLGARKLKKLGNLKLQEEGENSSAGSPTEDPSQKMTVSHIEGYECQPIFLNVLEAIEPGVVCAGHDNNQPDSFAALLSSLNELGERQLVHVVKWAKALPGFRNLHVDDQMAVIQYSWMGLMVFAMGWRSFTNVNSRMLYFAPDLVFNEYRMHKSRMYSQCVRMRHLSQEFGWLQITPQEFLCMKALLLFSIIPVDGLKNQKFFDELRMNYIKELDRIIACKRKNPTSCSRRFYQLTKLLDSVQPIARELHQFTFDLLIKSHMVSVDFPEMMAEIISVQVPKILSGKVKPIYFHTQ

[2] = target: T2, Alpha-1A adrenergic receptor (Rattus norvegicus, UniProt P43140); experiment: DRUGMATRIX: Alpha-1A adrenergic receptor radioligand binding (ligand: prazosin); assay type: cell membranes, Wistar, Submaxillary gland, Membrane; settings: Not Active = under 50% inhibition at 10 µM
T2 sequence (P43140 whole entry): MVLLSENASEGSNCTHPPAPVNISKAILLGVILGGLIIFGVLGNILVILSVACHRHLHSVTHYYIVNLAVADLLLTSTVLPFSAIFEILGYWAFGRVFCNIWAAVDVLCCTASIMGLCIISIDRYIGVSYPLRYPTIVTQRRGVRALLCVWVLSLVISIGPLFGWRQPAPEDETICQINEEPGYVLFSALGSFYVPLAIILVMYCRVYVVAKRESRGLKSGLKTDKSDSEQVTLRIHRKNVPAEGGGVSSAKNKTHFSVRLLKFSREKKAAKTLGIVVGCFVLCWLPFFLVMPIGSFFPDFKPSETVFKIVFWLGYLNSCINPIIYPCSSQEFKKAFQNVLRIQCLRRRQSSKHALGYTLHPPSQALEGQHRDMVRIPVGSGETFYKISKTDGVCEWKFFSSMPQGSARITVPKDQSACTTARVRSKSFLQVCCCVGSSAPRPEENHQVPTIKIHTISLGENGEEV

[3] = target: Cytochrome P450 2C9 (Homo sapiens, UniProt P11712); further: in other assays of this panel Not Active means under 50% inhibition at 10 µM
[4] = target: Cytochrome P450 3A4 (Homo sapiens, UniProt P08684); further: in other assays of this panel Not Active means under 50% inhibition at 10 µM
[5] = target: Cytochrome P450 2D6 (Homo sapiens, UniProt P10635); further: in other assays of this panel Not Active means under 50% inhibition at 10 µM
[6] = target: T3, Progesterone receptor (Bos taurus, UniProt Q690N0); experiment: DRUGMATRIX: Progesterone radioligand binding (ligand: [3H] R-5020); assay type: tissue-based, Uterus; settings: Not Active = under 50% inhibition at 10 µM
T3 sequence (Q690N0 whole entry): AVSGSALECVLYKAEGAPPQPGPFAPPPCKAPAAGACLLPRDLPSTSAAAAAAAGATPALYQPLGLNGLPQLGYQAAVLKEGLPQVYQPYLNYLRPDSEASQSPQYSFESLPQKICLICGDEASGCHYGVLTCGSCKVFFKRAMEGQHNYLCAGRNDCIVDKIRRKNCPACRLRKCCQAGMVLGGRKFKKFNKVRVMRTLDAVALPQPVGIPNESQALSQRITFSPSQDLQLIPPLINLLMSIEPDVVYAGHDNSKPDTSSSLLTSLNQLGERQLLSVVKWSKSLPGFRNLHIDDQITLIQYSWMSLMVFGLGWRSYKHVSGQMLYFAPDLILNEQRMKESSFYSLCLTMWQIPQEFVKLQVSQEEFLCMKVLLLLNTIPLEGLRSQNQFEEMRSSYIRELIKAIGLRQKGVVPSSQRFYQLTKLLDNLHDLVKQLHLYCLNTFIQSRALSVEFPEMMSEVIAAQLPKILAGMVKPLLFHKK

[7] = target: Cytochrome P450 2C19 (Homo sapiens, UniProt P33261); further: in other assays of this panel Not Active means under 50% inhibition at 10 µM
Sequence of Cytochrome P450 2C19 (P33261 whole entry): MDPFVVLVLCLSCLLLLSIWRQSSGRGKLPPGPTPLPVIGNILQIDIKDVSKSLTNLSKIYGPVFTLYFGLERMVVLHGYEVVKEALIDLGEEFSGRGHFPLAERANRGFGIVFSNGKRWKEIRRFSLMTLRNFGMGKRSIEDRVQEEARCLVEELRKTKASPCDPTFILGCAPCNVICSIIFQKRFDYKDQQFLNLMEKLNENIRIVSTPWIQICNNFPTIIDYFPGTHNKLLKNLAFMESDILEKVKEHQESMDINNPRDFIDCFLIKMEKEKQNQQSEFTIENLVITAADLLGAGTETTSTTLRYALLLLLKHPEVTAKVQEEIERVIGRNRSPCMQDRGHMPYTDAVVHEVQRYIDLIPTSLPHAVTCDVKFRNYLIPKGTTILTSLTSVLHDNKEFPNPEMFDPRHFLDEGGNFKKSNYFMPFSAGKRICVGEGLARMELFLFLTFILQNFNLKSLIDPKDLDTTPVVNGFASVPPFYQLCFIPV

Sequence of Cytochrome P450 2C9 (P11712 whole entry): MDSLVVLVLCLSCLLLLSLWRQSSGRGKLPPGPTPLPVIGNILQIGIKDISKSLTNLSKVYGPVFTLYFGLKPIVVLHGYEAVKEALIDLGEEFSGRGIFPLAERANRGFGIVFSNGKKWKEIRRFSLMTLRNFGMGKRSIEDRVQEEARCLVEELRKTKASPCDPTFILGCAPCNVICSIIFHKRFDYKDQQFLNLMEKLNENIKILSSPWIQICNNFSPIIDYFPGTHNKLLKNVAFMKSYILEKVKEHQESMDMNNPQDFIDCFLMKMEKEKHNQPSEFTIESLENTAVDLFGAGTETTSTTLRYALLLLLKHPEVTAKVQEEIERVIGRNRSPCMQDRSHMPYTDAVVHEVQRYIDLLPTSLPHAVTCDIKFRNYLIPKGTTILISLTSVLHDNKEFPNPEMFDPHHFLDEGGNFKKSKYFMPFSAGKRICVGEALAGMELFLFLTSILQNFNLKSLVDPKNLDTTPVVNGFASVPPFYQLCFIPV
Sequence of Cytochrome P450 3A4 (P08684 whole entry): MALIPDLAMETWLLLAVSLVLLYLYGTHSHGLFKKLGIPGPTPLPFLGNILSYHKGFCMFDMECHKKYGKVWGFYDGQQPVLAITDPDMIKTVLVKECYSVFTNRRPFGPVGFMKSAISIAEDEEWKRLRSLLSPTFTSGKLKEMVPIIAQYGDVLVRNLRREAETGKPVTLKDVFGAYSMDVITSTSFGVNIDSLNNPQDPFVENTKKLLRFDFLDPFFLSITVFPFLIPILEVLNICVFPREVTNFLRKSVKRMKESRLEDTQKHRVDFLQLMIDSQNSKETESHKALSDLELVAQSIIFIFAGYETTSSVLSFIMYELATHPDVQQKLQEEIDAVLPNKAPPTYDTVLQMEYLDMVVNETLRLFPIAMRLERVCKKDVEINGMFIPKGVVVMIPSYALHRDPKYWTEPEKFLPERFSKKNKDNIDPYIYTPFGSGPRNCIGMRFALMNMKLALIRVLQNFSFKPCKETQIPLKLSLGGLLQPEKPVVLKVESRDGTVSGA
Sequence of Cytochrome P450 2D6 (P10635 whole entry): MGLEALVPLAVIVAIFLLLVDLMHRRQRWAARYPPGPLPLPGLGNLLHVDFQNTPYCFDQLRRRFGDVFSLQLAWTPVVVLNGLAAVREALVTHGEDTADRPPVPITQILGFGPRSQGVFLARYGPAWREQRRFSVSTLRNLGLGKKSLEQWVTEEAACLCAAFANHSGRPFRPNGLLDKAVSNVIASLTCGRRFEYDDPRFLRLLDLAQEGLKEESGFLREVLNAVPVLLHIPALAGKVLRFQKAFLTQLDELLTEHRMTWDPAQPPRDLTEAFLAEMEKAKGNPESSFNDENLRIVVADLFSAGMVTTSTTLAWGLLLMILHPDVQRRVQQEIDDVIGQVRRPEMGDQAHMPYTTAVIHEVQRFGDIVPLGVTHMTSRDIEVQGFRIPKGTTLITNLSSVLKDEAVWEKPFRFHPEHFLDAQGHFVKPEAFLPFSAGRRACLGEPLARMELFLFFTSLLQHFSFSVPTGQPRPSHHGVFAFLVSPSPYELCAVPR

SMILES	IC50 [1]	IC50 [2]	IC50 [3]	IC50 [4]	IC50 [5]	IC50 [6]	IC50 [7]
COc1cc(N)nc2[nH]c(-c3ccc(F)cc3)c(-c3ccncc3)c12	Not Active	Not Active	1 µM	1 µM	0.2 µM	Not Active	–
CO[C@H]1C[C@@H]2CC[C@@H](C)[C@@](O)(O2)C(=O)C(=O)N2CCCC[C@H]2C(=O)O[C@H]([C@H](C)C[C@@H]2CC[C@@H](O)[C@H](OC)C2)CC(=O)[C@H](C)/C=C(\C)[C@@H](O)[C@@H](OC)C(=O)[C@H](C)C[C@H](C)/C=C/C=C/C=C/1C [SIROLIMUS]	Not Active	Not Active	2 µM	2 µM	–	Not Active	4 µM
